Results reported in patent publication US20220340629A1, “Myosin Derived Peptides and Related Compounds with Anticoagulant Activities” (THE SCRIPPS RESEARCH INSTITUTE, priority 0001, published 2022).
Starred links: 1 amine or outer side, 2 acyl side, 3 side chain; linkers in the order of their positions; H or OH if unused. Positions of bridges follow the written chain, without caps; N, C: chain ends. Non-standard residues stand in square brackets, D forms with d. Residues, ends and D or L forms follow the SMILES beside them. NMeF = CN[C@@H](Cc1ccccc1)C(=O)O; 3Pal = N[C@@H](Cc1cccnc1)C(=O)O; NMeN = CN[C@@H](CC(N)=O)C(=O)O; Suc = O=C(CCC(=O)[*:2])[*:1]; NMeS = CN[C@@H](CO)C(=O)O; Nle = CCCC[C@H](N)C(=O)O

Tests used:
[1] = system: thrombin generation in human platelet poor plasma with skeletal muscle myosin; assay: Assay 2A: thrombin generation, recalcification of human platelet poor plasma + myosin; type: biochemical; details: human platelet poor plasma 30%, myosin 50 nM, CaCl2 10 mmol/L; read-out: 2A (recalcification +myosin)
Description: Activities of the various peptides and derivative compounds were also examined via assays using recalcification of human plasma. [One of] these assay format (2A) involves monitoring thrombin generation in platelet poor plasma (PPP). Specifically, pooled normal human platelet poor plasma (PPP) (obtained from George King Bio Medical Inc., Overland Park, Kans.) (30%) was incubated with skeletal muscle myosin at 50 nM in the presence of peptide in DMSO or DMSO alone for 5 min at 37° C. Then, fluorogenic thrombin substrate solution (Z-Gly-Gly-Arg-AMC) (I-1140) with CaCl2 (10 mmol/L final) alone was added to the reaction mixture (total 110 μl) to initiate coagulation. Thrombin generation was followed continuously for 25 min using SPECTRAmax GEMINI XS fluorometer (Molecular Devices, Sunnyvale, Calif.) with excitation and emission wavelengths set at 360 and 460 nm, respectively. The first derivative of fluorescence versus time was used to produce thrombin generation curves with the correction for substrate consumption and inner filter effect. For this assay 96 well plate (total 110 μL) or 384 well plates (total 30 μL) were used.
Activities obtained from Assay 2A (recalcification of human plasma in the presence of myosin) were used to rank the various peptides listed in Table 3. As noted above, this assay monitors recalcification of plasma to stimulate thrombin generation. In this assay, potency of the compounds was determined as the peptide concentration for 50% inhibition of thrombin generation, defined as “IC50”.

[2] = target: skeletal muscle myosin-supported prothrombin activation by factors Xa and Va (Homo sapiens, UniProt P00742); assay: Assay 1A: prothrombin activation by factor Xa/factor Va/myosin in purified system; type: biochemical, human factors Xa and Va; rabbit skeletal muscle myosin; details: purified system; skeletal muscle myosin, factor Va 5 nM, factor Xa 0.2 nM, prothrombin 0.75 μM, 10 min; read-out: 1A (+myosin)
[3] = target: phospholipid-supported prothrombin activation by factors Xa and Va (Homo sapiens, UniProt P00742); assay: Assay 1C: phospholipid vesicle (PC/PS 80%/20%)-supported prothrombin activation; type: biochemical; details: PC/PS vesicles 4 μM; read-out: IC50, phospholipid vesicles containing 20% phosphatidylserine-supported prothrombin activation
[4] = system: skeletal muscle myosin-supported prothrombin activation by factors Xa and Va; assay: Assay 1A: prothrombin activation by factor Xa/factor Va/myosin in purified system; type: biochemical, human factors Xa and Va; rabbit skeletal muscle myosin

skeletal muscle myosin-supported prothrombin activation by factors Xa and Va (Homo sapiens, UniProt P00742), sequence (P00742 41-179): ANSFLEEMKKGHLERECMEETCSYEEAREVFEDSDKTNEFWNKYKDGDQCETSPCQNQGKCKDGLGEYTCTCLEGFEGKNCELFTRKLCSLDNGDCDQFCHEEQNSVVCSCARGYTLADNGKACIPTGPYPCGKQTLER
skeletal muscle myosin-supported prothrombin activation by factors Xa and Va (Homo sapiens, UniProt P00742), sequence (P00742 235-488): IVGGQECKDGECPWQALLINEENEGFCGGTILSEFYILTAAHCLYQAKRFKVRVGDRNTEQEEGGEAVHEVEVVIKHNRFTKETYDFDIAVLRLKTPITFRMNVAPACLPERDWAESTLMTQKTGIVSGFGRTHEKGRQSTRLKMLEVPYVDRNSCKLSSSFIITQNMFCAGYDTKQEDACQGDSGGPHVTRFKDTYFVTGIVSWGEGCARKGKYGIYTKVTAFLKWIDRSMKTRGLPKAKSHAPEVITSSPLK
skeletal muscle myosin-supported prothrombin activation by factors Xa and Va (Homo sapiens, UniProt P00742), sequence (P12259 29-737 partner): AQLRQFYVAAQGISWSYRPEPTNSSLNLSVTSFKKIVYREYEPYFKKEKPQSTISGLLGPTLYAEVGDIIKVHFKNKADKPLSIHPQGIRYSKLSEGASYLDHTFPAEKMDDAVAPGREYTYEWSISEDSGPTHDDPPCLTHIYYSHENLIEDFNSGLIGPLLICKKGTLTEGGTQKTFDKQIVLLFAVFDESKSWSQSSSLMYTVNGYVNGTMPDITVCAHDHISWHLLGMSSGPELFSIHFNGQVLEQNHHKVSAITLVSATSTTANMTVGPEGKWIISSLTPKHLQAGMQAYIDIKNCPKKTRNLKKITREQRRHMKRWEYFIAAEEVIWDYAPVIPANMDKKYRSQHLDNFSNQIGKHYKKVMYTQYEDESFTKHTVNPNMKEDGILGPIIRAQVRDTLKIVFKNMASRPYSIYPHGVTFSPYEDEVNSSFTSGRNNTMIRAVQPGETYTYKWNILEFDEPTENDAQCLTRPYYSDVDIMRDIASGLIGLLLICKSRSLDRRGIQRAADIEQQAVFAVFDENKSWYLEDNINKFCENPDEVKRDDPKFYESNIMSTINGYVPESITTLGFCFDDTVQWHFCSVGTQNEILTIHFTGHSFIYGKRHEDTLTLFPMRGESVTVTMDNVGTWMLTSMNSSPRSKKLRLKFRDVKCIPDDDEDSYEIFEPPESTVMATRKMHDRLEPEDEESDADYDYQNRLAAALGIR
skeletal muscle myosin-supported prothrombin activation by factors Xa and Va (Homo sapiens, UniProt P00742), sequence (P12259 1574-2224 partner): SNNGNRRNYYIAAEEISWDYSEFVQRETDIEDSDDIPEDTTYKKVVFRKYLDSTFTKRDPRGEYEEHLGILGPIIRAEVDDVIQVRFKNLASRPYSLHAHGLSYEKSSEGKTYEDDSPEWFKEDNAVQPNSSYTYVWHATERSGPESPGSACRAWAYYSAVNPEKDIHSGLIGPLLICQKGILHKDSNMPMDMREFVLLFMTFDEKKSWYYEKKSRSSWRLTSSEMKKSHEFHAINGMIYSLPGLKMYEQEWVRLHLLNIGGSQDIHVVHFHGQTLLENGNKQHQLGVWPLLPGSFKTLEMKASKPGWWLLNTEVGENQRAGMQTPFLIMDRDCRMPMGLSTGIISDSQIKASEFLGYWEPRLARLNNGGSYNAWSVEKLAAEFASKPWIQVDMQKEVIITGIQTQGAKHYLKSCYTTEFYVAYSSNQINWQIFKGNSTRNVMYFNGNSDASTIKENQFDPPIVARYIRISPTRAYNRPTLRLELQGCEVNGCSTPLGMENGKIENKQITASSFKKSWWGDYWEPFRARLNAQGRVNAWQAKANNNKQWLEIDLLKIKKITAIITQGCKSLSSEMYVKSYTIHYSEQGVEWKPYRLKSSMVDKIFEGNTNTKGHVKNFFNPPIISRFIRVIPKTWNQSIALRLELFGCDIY
phospholipid-supported prothrombin activation by factors Xa and Va, sequence (P00742 41-179 limits assumed): as the sequence (P00742 41-179) above
phospholipid-supported prothrombin activation by factors Xa and Va, sequence (P00742 235-488 limits assumed): as the sequence (P00742 235-488) above

SMILES	IC50 [1] [µM]	IC50 [2] [µM]	further results
CC[C@H](C)[C@H](NC(=O)[C@H](C)NC(=O)[C@H](CCC(=O)O)NC(=O)[C@H](CCCNC(=N)N)NC(=O)[C@H](CCCNC(=N)N)NC(=O)[C@H](CCC(=O)O)NC(=O)[C@@H]1CCCCNC(=O)CCC(=O)NCCCC[C@H](NC(=O)[C@H](C)NC(=O)[C@H](CC(C)C)NC(=O)[C@H](Cc2ccccc2)NC(=O)CNC(=O)[C@H](CCCNC(=N)N)NC(=O)[C@H](CS)NC(=O)[C@H](CCCNC(=N)N)NC(=O)[C@H](C)N)C(=O)N[C@@H](C(C)C)C(=O)N[C@@H](CCC(=O)O)C(=O)N[C@@H](Cc2ccc(O)cc2)C(=O)N[C@@H](CCC(N)=O)C(=O)N[C@@H](CCCNC(=N)N)C(=O)N[C@@H](CCSC)C(=O)N1)C(=O)N[C@@H](Cc1ccccc1)C(=O)N[C@H]1CCCCNC(=O)CCC(=O)NCCCC[C@@H](C(=O)N[C@@H](Cc2ccccc2)C(=O)N[C@@H](CCSC)C(=O)N[C@@H](CC(N)=O)C(=O)N[C@H](C(=O)N[C@@H](CCCCN)C(=O)N[C@@H](Cc2c[nH]cn2)C(=O)N[C@@H](Cc2c[nH]c3ccccc23)C(=O)N2CCC[C@H]2C(=O)N[C@@H](Cc2c[nH]c3ccccc23)C(N)=O)C(C)C)NC(=O)[C@H](CCCNC(=N)N)NC(=O)[C@H]([C@@H](C)CC)NC(=O)[C@H](CC(N)=O)NC(=O)[C@H](Cc2ccc(O)cc2)NC(=O)[C@H](CCC(N)=O)NC(=O)[C@H]([C@@H](C)CC)NC1=O [HC160] (H-ARCRGFLAKVEYQRMKERREAIFKIQYNIRKFMNVKHWPW-NH2; linker 9-16, 24-31 via Suc (inferred); N-terminus and C-terminus assumed)	3.4	–	–
CC[C@H](C)[C@H](NC(=O)[C@H](C)NC(=O)[C@H](CCC(=O)O)NC(=O)[C@H](CCCNC(=N)N)NC(=O)[C@H](CCCNC(=N)N)NC(=O)[C@H](CCC(=O)O)NC(=O)[C@@H]1CCCCNC(=O)CCC(=O)NCCCC[C@H](NC(=O)[C@H](C)NC(=O)[C@H](CC(C)C)NC(=O)[C@H](Cc2ccccc2)NC(=O)CNC(=O)[C@H](CCCNC(=N)N)NC(=O)[C@H](CS)NC(=O)[C@H](CCCNC(=N)N)NC(=O)[C@H](C)N)C(=O)N[C@@H](C(C)C)C(=O)N[C@@H](CCC(=O)O)C(=O)N[C@@H](Cc2ccc(O)cc2)C(=O)N[C@@H](CCC(N)=O)C(=O)N[C@@H](CCCNC(=N)N)C(=O)N[C@@H](CCSC)C(=O)N1)C(=O)N[C@@H](Cc1ccccc1)C(=O)N[C@@H](CS)C(=O)N[C@H](C(=O)N[C@@H](CCC(N)=O)C(=O)N[C@@H](Cc1ccc(O)cc1)C(=O)N[C@@H](CC(N)=O)C(=O)N[C@H](C(=O)N[C@@H](CCCNC(=N)N)C(=O)N[C@H]1CCCCNC(=O)CCC(=O)NCCCC[C@@H](C(=O)N2CCC[C@H]2C(=O)N[C@@H](Cc2c[nH]c3ccccc23)C(N)=O)NC(=O)[C@H](Cc2c[nH]cn2)NC(=O)[C@H](CCCCN)NC(=O)[C@H](C(C)C)NC(=O)[C@H](CC(N)=O)NC(=O)[C@H](CCSC)NC(=O)[C@H](Cc2ccccc2)NC1=O)[C@@H](C)CC)[C@@H](C)CC [HC161] (H-ARCRGFLAKVEYQRMKERREAIFCIQYNIRKFMNVKHKPW-NH2; linker 9-16, 31-38 via Suc (inferred); N-terminus and C-terminus assumed)	6.4	–	–
CCCC[C@H](NC(=O)[C@H](Cc1c[nH]c2ccccc12)NC(=O)[C@@H]1CCCN1C(=O)[C@H](Cc1c[nH]c2ccccc12)NC(=O)[C@H](Cc1c[nH]cn1)NC(=O)[C@H](CCCCN)NC(=O)[C@@H](NC(=O)[C@H](CC(N)=O)NC(=O)[C@H](CCCC)NC(=O)[C@H](Cc1ccccc1)NC(=O)[C@H](CO)NC(=O)[C@H](CCCNC(=N)N)NC(=O)[C@@H](NC(=O)[C@H](CC(N)=O)NC(=O)[C@H](Cc1ccc(O)cc1)NC(=O)[C@H](CCC(N)=O)NC(=O)[C@@H](NC(=O)[C@H](CS)NC(=O)[C@H](Cc1cccnc1)NC(=O)[C@@H](NC(=O)[C@H](C)N)[C@@H](C)CC)[C@@H](C)CC)[C@@H](C)CC)C(C)C)C(=O)N[C@@H](CCCCN)C(N)=O [HC178] (H-AI[3Pal]CIQYNIRSF[Nle]NVKHWPW[Nle]K-NH2; N-terminus assumed)	13	1.7	–
CCCC[C@H](NC(=O)[C@H](Cc1c[nH]c2ccccc12)NC(=O)[C@@H]1CCCN1C(=O)[C@H](Cc1c[nH]c2ccccc12)NC(=O)[C@H](Cc1c[nH]cn1)NC(=O)[C@H](CCCCN)NC(=O)[C@@H](NC(=O)[C@H](CC(N)=O)NC(=O)[C@H](CCCC)NC(=O)[C@H](Cc1ccccc1)NC(=O)[C@H](CO)NC(=O)[C@H](CCCNC(=N)N)NC(=O)[C@@H](NC(=O)[C@H](CC(N)=O)NC(=O)[C@H](Cc1ccc(O)cc1)NC(=O)[C@H](CCC(N)=O)NC(=O)[C@@H](NC(=O)[C@H](CO)NC(=O)[C@H](Cc1ccccc1)NC(=O)[C@@H](NC(=O)[C@H](C)N)[C@@H](C)CC)[C@@H](C)CC)[C@@H](C)CC)C(C)C)C(=O)N[C@@H](CCCCN)C(N)=O [HC188] (H-AIFSIQYNIRSF[Nle]NVKHWPW[Nle]K-NH2; N-terminus assumed)	10	0.59	–
CCCC[C@H](NC(=O)[C@H](Cc1c[nH]c2ccccc12)NC(=O)[C@@H]1CCCN1C(=O)[C@H](Cc1c[nH]c2ccccc12)NC(=O)[C@H](Cc1c[nH]cn1)NC(=O)[C@H](CCCCN)NC(=O)[C@@H](NC(=O)[C@H](CC(N)=O)NC(=O)[C@H](CCCC)NC(=O)[C@H](Cc1ccccc1)NC(=O)[C@H](CO)NC(=O)[C@H](CCCNC(=N)N)NC(=O)[C@@H](NC(=O)[C@H](CC(N)=O)NC(=O)[C@H](Cc1ccc(O)cc1)NC(=O)[C@H](CCC(N)=O)NC(=O)[C@@H](NC(=O)[C@H](CO)N(C)C(=O)[C@H](Cc1ccccc1)NC(=O)[C@@H](NC(=O)[C@H](C)N)[C@@H](C)CC)[C@@H](C)CC)[C@@H](C)CC)C(C)C)C(=O)N[C@@H](CCCCN)C(N)=O [HC189] (H-AIF[NMeS]IQYNIRSF[Nle]NVKHWPW[Nle]K-NH2; N-terminus assumed)	17	1.5	–
CCCC[C@H](NC(=O)[C@H](Cc1c[nH]c2ccccc12)NC(=O)[C@@H]1CCCN1C(=O)[C@H](Cc1c[nH]c2ccccc12)NC(=O)[C@H](Cc1c[nH]cn1)NC(=O)[C@H](CCCCN)NC(=O)[C@@H](NC(=O)[C@H](CC(N)=O)NC(=O)[C@H](CCCC)NC(=O)[C@H](Cc1ccccc1)N(C)C(=O)[C@H](CO)NC(=O)[C@H](CCCNC(=N)N)NC(=O)[C@@H](NC(=O)[C@H](CC(N)=O)NC(=O)[C@H](Cc1ccc(O)cc1)NC(=O)[C@H](CCC(N)=O)NC(=O)[C@@H](NC(=O)[C@H](CS)NC(=O)[C@H](Cc1ccccc1)NC(=O)[C@@H](NC(=O)[C@H](C)N)[C@@H](C)CC)[C@@H](C)CC)[C@@H](C)CC)C(C)C)C(=O)N[C@@H](CCCCN)C(N)=O [HC198] (H-AIFCIQYNIRS[NMeF][Nle]NVKHWPW[Nle]K-NH2; N-terminus assumed)	16	0.87	–
CCCC[C@H](NC(=O)[C@H](Cc1c[nH]c2ccccc12)NC(=O)[C@@H]1CCCN1C(=O)[C@H](Cc1c[nH]c2ccccc12)NC(=O)[C@H](Cc1c[nH]cn1)NC(=O)[C@H](CCCCN)NC(=O)[C@@H](NC(=O)[C@H](CC(N)=O)N(C)C(=O)[C@H](CCCC)NC(=O)[C@H](Cc1ccccc1)NC(=O)[C@H](CO)NC(=O)[C@H](CCCNC(=N)N)NC(=O)[C@@H](NC(=O)[C@H](CC(N)=O)NC(=O)[C@H](Cc1ccc(O)cc1)NC(=O)[C@H](CCC(N)=O)NC(=O)[C@@H](NC(=O)[C@H](CS)NC(=O)[C@H](Cc1ccccc1)NC(=O)[C@@H](NC(=O)[C@H](C)N)[C@@H](C)CC)[C@@H](C)CC)[C@@H](C)CC)C(C)C)C(=O)N[C@@H](CCCCN)C(N)=O [HC199] (H-AIFCIQYNIRSF[Nle][NMeN]VKHWPW[Nle]K-NH2)	5.8 to 10.2	0.46	–
CC[C@H](C)[C@H](NC(=O)[C@H](CC(C)C)NC(=O)[C@H](CCC(N)=O)NC(=O)[C@H](C)NC(=O)[C@H](CC(C)C)NC(=O)[C@H](CCCCN)NC(=O)[C@H](CC(=O)O)NC(=O)[C@H](CC(=O)O)NC(=O)[C@H](CCCNC(=N)N)NC(=O)[C@H](CCSC)NC(=O)[C@@H](N)CCC(=O)O)C(=O)N[C@H](C(=O)N[C@@H](CCCNC(=N)N)C(=O)N[C@H](C(=O)N[C@@H](CCC(N)=O)C(=O)N[C@@H](C)C(=O)N[C@@H](CCCNC(=N)N)C(=O)N[C@@H](CS)C(=O)N[C@@H](CCCNC(=N)N)C(=O)NCC(=O)N[C@@H](Cc1ccccc1)C(=O)N[C@@H](CC(C)C)C(=O)N[C@@H](C)C(=O)N[C@@H](CCCNC(=N)N)C(=O)N[C@H](C(=O)N[C@@H](CCC(=O)O)C(=O)N[C@@H](Cc1ccc(O)cc1)C(=O)N[C@@H](CCC(N)=O)C(=O)N[C@@H](CCCNC(=N)N)C(=O)N[C@@H](CCSC)C(N)=O)C(C)C)[C@@H](C)O)[C@@H](C)O [HC781-810] (H-EMRDDKLAQLITRTQARCRGFLARVEYQRM-NH2)	–	–	IC50 [3]: 7.5 µM; IC50 ([4]; dose-dependency assays, FIG. 2A, myosin 2 nM, read-out: IC50, inhibition of myosin-supported prothrombin activation): 64 µM; inhibition of myosin-supported prothrombin activation at 5 μM ([4]; peptide 5 μM, FIG. 1A): inhibitory, to varying degrees; inhibition of myosin-supported prothrombin activation at 100 μM ([4]; peptide 100 μM, FIG. 1A): inhibited
